# Results reported in US20260232717A1, “PARENTERAL NUTRITION FORMULATION COMPRISING VITAMIN B12” (BAXTER INTERNATIONAL INC., priority 2020, published 2026).
# Marks after values point to notes of the source that are not given here.
# Tests used:
# Format in all cases: physicochemical
# [1] = Stability of vitamins in 35% glucose solution during sterilization (Cycles 1-4) and storage; details: for concentration, T1M40° C. / concentration, T3M40° C. / concentration, Cycle 3 T0 / concentration, T6M40° C. / concentration, Cycle 4 T0 / concentration, Unsterilized T0 / concentration, T6M40° C., sum of cyanocobalamin and hydroxocobalamin: 35% glucose solution; for concentration, T1M40° C.: 1 month 40° C.; for concentration, T3M40° C.: 3 months 40° C.; for concentration, Cycle 3 T0: Cycle 3 (water spray sterilization, Co = 25 minutes); for concentration, Cycle 3 T0 / concentration, Cycle 4 T0: after sterilization; for concentration, T6M40° C. / concentration, T6M40° C., sum of cyanocobalamin and hydroxocobalamin: 6 months 40° C.; for concentration, Cycle 4 T0: Cycle 4 (water spray sterilization, Co = 19 minutes); for concentration, Unsterilized T0: before sterilization
# Method: (§1) For testing the stability of vitamin B12 in formulation as they are typically used in parenteral nutrition, a 35% glucose solution, a 14.2% amino acid formulation such as found, for example, in Olimel N9E (Baxter Int. Inc.), and a 20% lipid emulsion such as found in Clinoleic 20% (Baxter Int. Inc.) were supplemented with different vitamins combinations which always included vitamin B12. KC1 was added into the glucose solution to understand if it has an effect on the stability of vitamin B12. Vitamin B12 was introduced as […]. Ascorbyl palmitate was added to the lipid emulsion formulation as a stabilizing agent due to its antioxidant properties. In addition, two separate micellar solutions (“Vit A” and “Vit B”, see Table 5) comprising certain vitamins to be assessed with regard to degradation (B3, B6, B8, B9, B12, C) but formulated with different excipients as micellization agents were tested for vitamin B12 stability. Vit A consisted of a solution of mixed micelles with ascorbyl palmitate as a potential stability enhancer. Vit B was formulated with a mix of polysorbates, PEG and sorbitol to form micelles. The micellar solutions were prepared by mixing, under high speed, a solution composed of glycocholic acid and lecithins dissolved in water. In case of Vit B, the glycocholic acid and lecithin were replaced by PEG and polysorbate. All formulations were provided in standard flexible containers and overpouched with an aluminum overpouch for subsequent sterilization. For an overview over formulations and conditions see Table 5.
# (§2) All samples were submitted to two different sterilization technologies. Steam sterilization targeting a Fo=8 min was. used for large volumes (400/800 ml, Cycle 2) and for small volumes (25/50 ml, Cycle 1) as lined out in Table 5 above. The same samples were sterilized by water spray sterilization with a serial tower continuous sterilization equipment with two different exposure times (Cycles 3 (25 min.) and 4 (19 min.)).
# (§3) The vitamin recovery was then compared between the different sterilization cycles and formulations to understand the impact of the formulation and the sterilization technology used on their respective short- and long-term stability. Therefore, after sterilization, the samples were stored at 40° C./[…] for 6 months to evaluate the recovery of vitamin B12 at TIM, T3M and T6M. Besides, backup samples were stored at 5° C. Finally, some samples were also stored at 25° C./40% RH to provide for real time stability data.
# [2] = Studies of cyanocobalamin in lipid emulsions (summary statement)
# Method: (storage for 3 months at 40° C.), even though hydroxocobalamin seems to remain relatively stable for about 6 months at 40° C.
# [3] = Stability of vitamin B12 in 20% lipid emulsion with ascorbyl palmitate during sterilization (Cycles 1-4) and storage; details: for concentration, T1M40° C.: 1 month 40° C.; for concentration, T6M40° C., sum of cyanocobalamin and hydroxocobalamin: 6 months 40° C.
# Method: as §1, §2, §3
# Vitamin B12 was also considerably degraded in the lipid emulsion (Tables 8 through 11). […] It should thus be avoided in formulations according to the invention.
# [4] = Cycle 1 (steam sterilization), 25 ml
# [5] = Cycle 2 (steam sterilization), 800 ml
Compound,"concentration, T1M40° C. [1, 4] [ng/mL]","concentration, T3M40° C. [1, 4] [ng/mL]","concentration, T1M40° C. [1, 5] [ng/mL]","concentration, T3M40° C. [1, 5] [ng/mL]","concentration, Cycle 3 T0 [1] [ng/mL]","concentration, T3M40° C. ([1]; Cycle 3 (water spray)) [ng/mL]","concentration, T6M40° C. ([1]; Cycle 3 (water spray)) [ng/mL]","concentration, Cycle 4 T0 ([1]; 800 ml) [ng/mL]","concentration, T3M40° C. ([1]; Cycle 4 (water spray)) [ng/mL]","concentration, T6M40° C. ([1]; Cycle 4 (water spray)) [ng/mL]","concentration, Unsterilized T0 ([1]; Table 6A (25 ml)) [ng/mL]","concentration, Unsterilized T0 ([1]; Table 6B (800 ml)) [ng/mL]","concentration, Unsterilized T0 ([1]; Table 7A) [ng/mL]","concentration, Unsterilized T0 ([1]; Table 7B, 800 ml) [ng/mL]",other results
"O=C(O)c1cccnc1 [Batch B3, niacin]",49300,50200,50600,51200,50500,50300,48270,50400,51000,49350,51100,51100,52800,52800,
"Cc1ncc(CO)c(CO)c1O [Batch B6, Pyridoxine]",6400,6500,5930,6000,6230,6100,6040,6270,5900,6030,6400,6400,6610,6610,
C/C1=C2/[N-][C@H]([C@H](CC(N)=O)[C@@]2(C)CCC(=O)NC[C@@H](C)OP(=O)([O-])O[C@H]2[C@@H](O)[C@@H](n3cnc4cc(C)c(C)cc43)O[C@@H]2CO)[C@]2(C)N=C(/C(C)=C3N=C(/C=C4N=C1[C@@H](CCC(N)=O)C\4(C)C)[C@@H](CCC(N)=O)[C@]\3(C)CC(N)=O)[C@@H](CCC(N)=O)[C@]2(C)CC(N)=O.[Co+3].[OH-] [hydroxocobalamin],,,,,,,,,,,,,,,"time hydroxocobalamin remains relatively stable ([2]; lipid emulsions, 40° C.): about 6 months"
cobalamin [Batch B12],4.5,3.7,4,3.6,5.1,4.1,,5.2,4.1,,6.2,6.2,6,6,"concentration, Unsterilized T0 ([3]; 20% lipid emulsion with ascorbyl palmitate, Table 8, before sterilization): 15 ng/mL; concentration, T1M40° C. ([3]; 20% lipid emulsion, Cycle 1 (steam sterilization)): 4 ng/mL; concentration, T3M40° C. ([3]; 20% lipid emulsion, Cycle 1 (steam sterilization), 3 months 40° C.): <LOD; concentration, T1M40° C. ([3]; 20% lipid emulsion, Cycle 2 (steam sterilization)): <LOD; concentration, Cycle 2 T0 ([3]; 20% lipid emulsion, Cycle 2 (steam sterilization), after sterilization): 5 ng/mL; concentration, Cycle 3 T0 ([3]; 20% lipid emulsion, Cycle 3 (water spray sterilization), after sterilization): 5 ng/mL; concentration, T6M40° C., sum of cyanocobalamin and hydroxocobalamin ([3]; 20% lipid emulsion, Cycle 3 (water spray)): 3.7 ng/mL; concentration, Unsterilized T0 ([3]; 20% lipid emulsion, Table 10, before sterilization): 14 ng/mL; concentration, Unsterilized T0 ([3]; 20% lipid emulsion, Table 11, before sterilization): 14 ng/mL; concentration, T0 after sterilization ([3]; 20% lipid emulsion, Table 11, head 'Cycle 3', water spray sterilization with serial tower continuous equipment): 6 ng/mL; concentration, T6M40° C., sum of cyanocobalamin and hydroxocobalamin ([3]; 20% lipid emulsion, Table 11, head 'Cycle 3', water spray): 5.5 ng/mL; concentration, T6M40° C., sum of cyanocobalamin and hydroxocobalamin ([1]; Cycle 3 (water spray)): 0.0023* mg/L; concentration, T6M40° C., sum of cyanocobalamin and hydroxocobalamin ([1]; Cycle 4 (water spray)): 0.0031* mg/L"
cyanocobalamin,,,,,,,,,,,,,,,"cyanocobalamin detection ([2]; lipid emulsions irrespective of oil source, pH or stabilizing agent, T3M40° C.): no more cyanocobalamin can be detected; cyanocobalamin detection after 6 months ([1]; glucose solution, Cycles 1 and 2 (steam sterilization), FIG. 2): no cyanocobalamin can be detected"
